Measurements published in ChEMBL document CHEMBL3352377, “Discovery of selective and orally bioavailable protein kinase Cθ (PKCθ) inhibitors from a fragment hit” (J Med Chem, 2015).

Tests used:
[1] = Permeability from apical to basolateral side in MDCK2-MDR1 cells at pH 7.4; type: ADME, cell-based, Canis lupus familiaris, MDCK-II; conditions: dog, MDCK-MDR1, pH 7.4; read-out: permeability
[2] = Unbound intrinsic clearance in human microsomes; type: ADME, Microsome
[3] = Unbound intrinsic clearance in rat microsomes; type: ADME, Microsome
[4] = Unbound intrinsic clearance in mouse microsomes; type: ADME, Microsome
[5] = Plasma clearance in rat at 1 mg/kg, iv or 3 mg/kg, po; type: ADME, organism-based
[6] = Half life in rat at 1 mg/kg, iv or 3 mg/kg, po; type: ADME, organism-based; conditions: in vivo
[7] = Cmax in rat at 1 mg/kg, iv or 3 mg/kg, po; type: ADME, organism-based; conditions: in vivo
[8] = AUC in rat at 1 mg/kg, iv or 3 mg/kg, po; type: ADME, organism-based; conditions: plasma
[9] = Oral bioavailability in rat at 3 mg/kg; type: ADME, organism-based; conditions: in vivo
[10] = Plasma clearance in mouse at 3 mg/kg, iv or 10 mg/kg, po; type: ADME, organism-based
[11] = Half life in mouse at 3 mg/kg, iv or 10 mg/kg, po; type: ADME, organism-based; conditions: in vivo
[12] = Cmax in mouse at 3 mg/kg, iv or 10 mg/kg, po; type: ADME, organism-based; conditions: in vivo
[13] = AUC in mouse at 3 mg/kg, iv or 10 mg/kg, po; type: ADME, organism-based; conditions: plasma
[14] = Oral bioavailability in mouse at 10 mg/kg; type: ADME, organism-based; conditions: in vivo
[15] = biological target: Voltage-gated inwardly rectifying potassium channel KCNH2 (Homo sapiens, UniProt Q12809); experiment: Inhibition of human ERG
[16] = Plasma concentration in concanavalin A-induced Balb/c mouse at 1 mg/kg, po dosed 2 hrs before concanavalin A challenge; type: ADME, organism-based; design: dose 1 mg/kg, route oral
[17] = Plasma concentration in concanavalin A-induced Balb/c mouse at 3 mg/kg, po dosed 2 hrs before concanavalin A challenge; type: ADME, organism-based; design: dose 3 mg/kg, route oral
[18] = Plasma concentration in concanavalin A-induced Balb/c mouse at 10 mg/kg, po dosed 2 hrs before concanavalin A challenge; type: ADME, organism-based; design: dose 10 mg/kg, route oral
[19] = Plasma concentration in concanavalin A-induced Balb/c mouse at 30 mg/kg, po dosed 2 hrs before concanavalin A challenge; type: ADME, organism-based; design: dose 30 mg/kg, route oral
[20] = Plasma concentration in concanavalin A-induced Balb/c mouse at 100 mg/kg, po dosed 2 hrs before concanavalin A challenge; type: ADME, organism-based; design: dose 100 mg/kg, route oral
[21] = Fraction unbound in mouse plasma; type: ADME, cell-free
Mus musculus [22] = experiment: Reduction in paw swelling in DBA/J mouse model of glucose 6-phosphate isomerase-induced athritis at 30 mg/kg, po dosed twice daily from day 1 to day 17; type: functional
Mus musculus [23] = experiment: Reduction in paw swelling in DBA/J mouse model of glucose 6-phosphate isomerase-induced athritis at 10 mg/kg, po dosed twice daily from day 1 to day 17; type: functional
[24] = AUC (0 to t) in DBA/J mouse model of glucose 6-phosphate isomerase-induced athritis at 10 mg/kg, po dosed twice daily from day 1 to day 17; type: ADME, organism-based; design: dose 10 mg/kg, route oral; conditions: in vivo
[25] = AUC (0 to t) in DBA/J mouse model of glucose 6-phosphate isomerase-induced athritis at 30 mg/kg, po dosed twice daily from day 1 to day 17; type: ADME, organism-based; design: dose 30 mg/kg, route oral; conditions: in vivo
Mus musculus [26] = experiment: Toxicity in DBA/J mouse model of glucose 6-phosphate isomerase-induced athritis at 100 mg/kg, po dosed twice daily for >10 days; type: organism-based; design: dose 100 mg/kg, route oral; conditions: in vivo, 240 h
[27] = biological target: Protein kinase C alpha type (Homo sapiens, UniProt P17252)
cells = conditions: Homo sapiens, T-Blast, 24 h
Description: Inhibition of anti-CD3/anti-CD28 antibody-induced IL2 production in human T-Blast cells after 24 hrs

[28] = biological target: Protein kinase C beta type (Homo sapiens, UniProt P05771); experiment: Inhibition of human recombinant PKCbeta expressed in Sf21 cells using Bio-cdc peptide substrate and ATP after 60 mins by time-resolved fluorescence in-vitro kinase assay
[29] = biological target: Protein kinase C delta type (Homo sapiens, UniProt Q05655); experiment: Inhibition of human recombinant PKCdelta expressed in Sf21 cells using Bio-cdc peptide substrate and ATP after 60 mins by time-resolved fluorescence in-vitro kinase assay
[30] = biological target: T1, Protein kinase C epsilon type (Homo sapiens, UniProt Q02156); experiment: Inhibition of human recombinant PKCepsilon expressed in Sf21 cells using Bio-cdc peptide substrate and ATP after 60 mins by time-resolved fluorescence in-vitro kinase assay
T1 sequence (Q02156 whole entry): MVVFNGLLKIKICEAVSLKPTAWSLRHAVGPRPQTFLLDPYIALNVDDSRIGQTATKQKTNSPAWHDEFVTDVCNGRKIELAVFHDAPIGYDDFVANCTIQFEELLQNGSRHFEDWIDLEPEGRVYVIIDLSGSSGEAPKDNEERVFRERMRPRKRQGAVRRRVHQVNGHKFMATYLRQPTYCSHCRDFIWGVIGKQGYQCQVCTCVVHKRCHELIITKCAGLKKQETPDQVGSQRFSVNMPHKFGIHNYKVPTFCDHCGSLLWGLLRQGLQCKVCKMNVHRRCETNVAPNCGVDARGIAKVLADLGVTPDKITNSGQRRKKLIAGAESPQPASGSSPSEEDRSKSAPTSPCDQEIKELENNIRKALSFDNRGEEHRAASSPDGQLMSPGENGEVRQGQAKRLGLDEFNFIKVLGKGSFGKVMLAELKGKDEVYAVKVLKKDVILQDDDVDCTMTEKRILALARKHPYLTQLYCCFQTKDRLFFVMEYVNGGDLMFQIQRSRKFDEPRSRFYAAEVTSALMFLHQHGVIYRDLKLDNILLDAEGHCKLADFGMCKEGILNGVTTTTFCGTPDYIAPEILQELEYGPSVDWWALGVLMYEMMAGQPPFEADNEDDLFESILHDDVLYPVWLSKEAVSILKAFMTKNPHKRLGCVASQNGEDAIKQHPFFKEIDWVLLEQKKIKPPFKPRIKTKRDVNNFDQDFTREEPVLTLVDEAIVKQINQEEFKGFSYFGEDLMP

[31] = biological target: Protein kinase C gamma type (Homo sapiens, UniProt P05129); experiment: Inhibition of human recombinant PKCgamma expressed in Sf21 cells using Bio-cdc peptide substrate and ATP after 60 mins by time-resolved fluorescence in-vitro kinase assay
[32] = Inhibition of human recombinant […] expressed in Sf21 cells using Bio-cdc peptide substrate and ATP after 60 mins by time-resolved fluorescence in-vitro kinase assay
[33] = biological target: T2, Protein kinase C zeta type (Homo sapiens, UniProt Q05513); experiment: Inhibition of human recombinant PKCzeta expressed in Sf21 cells using Bio-cdc peptide substrate and ATP after 60 mins by time-resolved fluorescence in-vitro kinase assay
T2 sequence (Q05513 whole entry): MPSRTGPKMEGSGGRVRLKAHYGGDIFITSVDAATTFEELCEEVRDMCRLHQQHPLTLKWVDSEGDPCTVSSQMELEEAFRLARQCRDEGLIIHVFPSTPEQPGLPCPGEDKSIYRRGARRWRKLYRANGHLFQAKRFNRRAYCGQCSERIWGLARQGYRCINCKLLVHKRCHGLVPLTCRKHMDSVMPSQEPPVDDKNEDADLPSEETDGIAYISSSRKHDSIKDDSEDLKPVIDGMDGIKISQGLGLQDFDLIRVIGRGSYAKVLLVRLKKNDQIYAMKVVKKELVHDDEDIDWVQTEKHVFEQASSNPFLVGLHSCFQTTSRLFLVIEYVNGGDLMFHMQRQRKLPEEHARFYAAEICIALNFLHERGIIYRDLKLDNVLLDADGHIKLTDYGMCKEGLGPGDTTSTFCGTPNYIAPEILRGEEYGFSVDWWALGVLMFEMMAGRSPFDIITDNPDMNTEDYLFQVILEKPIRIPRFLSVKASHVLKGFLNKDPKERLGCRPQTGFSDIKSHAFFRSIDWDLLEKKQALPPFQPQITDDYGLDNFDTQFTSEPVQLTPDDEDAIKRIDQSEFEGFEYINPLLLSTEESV

Canis familiaris [34] = experiment: Reduction in dP/dtmax in anesthetized dog cardiovascular model at plasma concentration of 2.2 uM in presence of hexamethonium; type: ADME, organism-based, Canis lupus familiaris; design: scale not given: the % may be the effect or the level left; conditions: in vivo
Canis familiaris [35] = experiment: Reduction in mean arterial pressure in anesthetized dog cardiovascular model at plasma concentration of 7.7 uM in presence of hexamethonium; type: ADME, organism-based, Canis lupus familiaris; conditions: in vivo
Canis familiaris [36] = experiment: Reduction in dP/dtmax in anesthetized dog cardiovascular model at plasma concentration of 7.7 uM in presence of hexamethonium; type: ADME, organism-based, Canis lupus familiaris; design: scale not given: the % may be the effect or the level left; conditions: in vivo
Canis familiaris [37] = experiment: Reduction in mean arterial pressure in anesthetized dog cardiovascular model at plasma concentration of 1.7 uM; type: ADME, organism-based, Canis lupus familiaris; conditions: in vivo
Canis familiaris [38] = experiment: Reduction in dP/dtma in anesthetized dog cardiovascular model at plasma concentration of 1.7 uM; type: ADME, organism-based, Canis lupus familiaris; design: scale not given: the % may be the effect or the level left; conditions: in vivo
Canis familiaris [39] = experiment: Reduction in mean arterial pressure in anesthetized dog cardiovascular model at plasma concentration of 6.9 uM; type: ADME, organism-based, Canis lupus familiaris; conditions: in vivo
Canis familiaris [40] = experiment: Increase in dP/dtma in anesthetized dog cardiovascular model at plasma concentration of 7.7 uM; conditions: in vivo
Rattus norvegicus [41] = experiment: Reduction in heart rate in rat cardiovascular model at 3 to 30 mg/kg dosed over 30 mins infusions; conditions: in vivo, iv, 0.5 h
Canis familiaris [42] = experiment: Reduction in mean arterial pressure in anesthetized dog cardiovascular model in presence of hexamethonium; conditions: in vivo
Rattus norvegicus [43] = experiment: Effect on left ventricular dP/dt50 in rat cardiovascular model at 3 to 30 mg/kg dosed over 30 mins infusions; conditions: in vivo, iv, 0.5 h
Rattus norvegicus [44] = experiment: Reduction in mean arterial pressure in rat cardiovascular model at 3 to 30 mg/kg dosed over 30 mins infusions; conditions: in vivo, iv, 0.5 h
Rattus norvegicus [45] = experiment: Increase in left ventricular dP/dt50 in rat cardiovascular model at plasma concentration of 1.3 uM dosed over 30 mins infusions; conditions: in vivo, iv, 0.5 h
Rattus norvegicus [46] = experiment: Increase in left ventricular dP/dt50 in rat cardiovascular model at plasma concentration of 5.8 uM dosed over 30 mins infusions; conditions: in vivo, iv, 0.5 h
Rattus norvegicus [47] = experiment: Increase in left ventricular dP/dt50 in rat cardiovascular model at plasma concentration of 9.7 uM dosed over 30 mins infusions; conditions: in vivo, iv, 0.5 h

Chain of Voltage-gated inwardly rectifying potassium channel KCNH2 (Q12809 whole entry): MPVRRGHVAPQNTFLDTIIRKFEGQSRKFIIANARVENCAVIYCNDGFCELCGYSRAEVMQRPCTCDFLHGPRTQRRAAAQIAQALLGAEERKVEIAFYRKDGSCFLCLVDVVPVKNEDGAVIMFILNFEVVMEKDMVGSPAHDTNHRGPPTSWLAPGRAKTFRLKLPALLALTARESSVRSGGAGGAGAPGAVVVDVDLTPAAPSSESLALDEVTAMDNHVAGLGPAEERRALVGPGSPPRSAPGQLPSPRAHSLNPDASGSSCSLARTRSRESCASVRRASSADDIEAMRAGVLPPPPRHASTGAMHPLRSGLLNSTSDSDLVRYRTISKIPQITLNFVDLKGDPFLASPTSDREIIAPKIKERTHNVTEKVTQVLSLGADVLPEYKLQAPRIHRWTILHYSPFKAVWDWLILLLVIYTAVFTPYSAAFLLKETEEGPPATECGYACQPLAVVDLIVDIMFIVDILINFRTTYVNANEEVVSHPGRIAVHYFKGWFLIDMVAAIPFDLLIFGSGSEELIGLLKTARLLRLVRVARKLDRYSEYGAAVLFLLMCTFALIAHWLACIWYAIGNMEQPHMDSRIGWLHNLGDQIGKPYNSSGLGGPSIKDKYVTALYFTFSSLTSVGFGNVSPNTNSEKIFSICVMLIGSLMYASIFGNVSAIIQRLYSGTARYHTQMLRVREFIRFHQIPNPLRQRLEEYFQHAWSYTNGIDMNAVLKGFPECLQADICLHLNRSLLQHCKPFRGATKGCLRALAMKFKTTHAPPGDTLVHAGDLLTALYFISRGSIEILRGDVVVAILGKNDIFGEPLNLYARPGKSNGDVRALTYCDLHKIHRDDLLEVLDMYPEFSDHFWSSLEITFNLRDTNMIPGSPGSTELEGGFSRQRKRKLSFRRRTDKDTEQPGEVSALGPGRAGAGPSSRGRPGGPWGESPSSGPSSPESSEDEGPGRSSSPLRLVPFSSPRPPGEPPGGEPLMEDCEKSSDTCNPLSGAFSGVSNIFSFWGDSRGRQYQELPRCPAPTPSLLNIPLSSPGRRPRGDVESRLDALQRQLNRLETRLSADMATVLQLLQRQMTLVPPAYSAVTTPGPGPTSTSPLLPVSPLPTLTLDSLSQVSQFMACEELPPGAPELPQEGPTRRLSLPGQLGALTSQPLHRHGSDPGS
Chain of Protein kinase C beta type (P05771 whole entry): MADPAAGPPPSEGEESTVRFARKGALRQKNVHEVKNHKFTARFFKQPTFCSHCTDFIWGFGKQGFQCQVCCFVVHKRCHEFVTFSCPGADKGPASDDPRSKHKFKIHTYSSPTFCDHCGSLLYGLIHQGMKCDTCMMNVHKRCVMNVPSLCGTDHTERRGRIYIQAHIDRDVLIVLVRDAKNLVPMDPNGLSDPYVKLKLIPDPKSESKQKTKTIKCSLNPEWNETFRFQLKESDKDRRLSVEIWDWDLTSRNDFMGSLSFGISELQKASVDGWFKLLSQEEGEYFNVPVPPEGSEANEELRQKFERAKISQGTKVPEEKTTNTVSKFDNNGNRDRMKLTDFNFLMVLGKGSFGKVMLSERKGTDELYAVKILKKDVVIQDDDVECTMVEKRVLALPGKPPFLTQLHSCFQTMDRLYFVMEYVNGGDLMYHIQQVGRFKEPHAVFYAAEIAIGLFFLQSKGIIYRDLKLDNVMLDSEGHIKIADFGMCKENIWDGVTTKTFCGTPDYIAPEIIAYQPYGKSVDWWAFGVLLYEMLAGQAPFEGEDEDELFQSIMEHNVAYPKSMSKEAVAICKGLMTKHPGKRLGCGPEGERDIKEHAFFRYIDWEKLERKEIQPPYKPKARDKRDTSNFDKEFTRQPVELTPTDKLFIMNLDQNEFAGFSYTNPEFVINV
Chain of Protein kinase C delta type (Q05655 whole entry): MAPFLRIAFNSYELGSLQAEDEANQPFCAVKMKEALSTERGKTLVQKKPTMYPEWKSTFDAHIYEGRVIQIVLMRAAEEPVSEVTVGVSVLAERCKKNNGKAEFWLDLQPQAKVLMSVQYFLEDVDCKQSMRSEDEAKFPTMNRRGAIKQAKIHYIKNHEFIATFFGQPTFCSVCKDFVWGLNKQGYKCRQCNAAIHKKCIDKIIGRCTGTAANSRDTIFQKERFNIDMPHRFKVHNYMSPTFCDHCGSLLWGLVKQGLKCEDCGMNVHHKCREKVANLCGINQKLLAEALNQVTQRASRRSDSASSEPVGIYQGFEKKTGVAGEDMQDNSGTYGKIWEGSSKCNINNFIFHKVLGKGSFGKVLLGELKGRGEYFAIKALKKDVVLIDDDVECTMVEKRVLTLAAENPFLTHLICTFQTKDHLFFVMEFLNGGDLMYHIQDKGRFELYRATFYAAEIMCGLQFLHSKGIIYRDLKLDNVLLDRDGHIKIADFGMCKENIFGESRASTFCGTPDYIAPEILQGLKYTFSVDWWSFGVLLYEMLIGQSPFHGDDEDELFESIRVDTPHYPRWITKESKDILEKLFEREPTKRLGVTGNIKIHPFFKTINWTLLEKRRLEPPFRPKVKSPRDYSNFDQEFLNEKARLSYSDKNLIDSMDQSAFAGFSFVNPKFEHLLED

Structure (SMILES) | Papp A→B [1] [×10⁻⁶ cm/s] | CL free [2] [mL/min/kg] | CL free [3] [mL/min/kg] | CL free [4] [mL/min/kg] | clearance [5] [mL/min/kg] | half-life [6] [h] | Cmax [7] [ng/mL] | AUC [8] [ng·h/mL] | bioavailability [9] [%] | clearance [10] [mL/min/kg] | half-life [11] [h] | Cmax [12] [ng/mL] | AUC [13] [ng·h/mL] | bioavailability [14] [%] | IC50 [15] [nM] | IC50 [27] [nM] | IC50 (cells) [nM] | further results
C[C@@H]1C(=O)NN=C2COc3cc(C(F)(F)F)c(NC4(C)CNC4)cc3N21 | 1.5 | < 33 | < 55 | < 95 | 45 | 4.7 | 160 | 782 | 74 | 25 | 3.1 | 846 | 9260 | 108 | > 30000 | 1700 | 120 | concentration at 2 h [16]: 37 nM; concentration at 2 h [17]: 110 nM; concentration at 2 h [18]: 310 nM; concentration at 2 h [19]: 900 nM; concentration at 2 h [20]: 2500 nM; fraction unbound [21]: 0.27; inhibition in vivo at 30 mg/kg (Mus musculus [22]): 100%; inhibition in vivo at 10 mg/kg (Mus musculus [23]): 62%; AUC(0-t) [24]: 4500 ng·h/mL; AUC(0-t) [25]: 15100 ng·h/mL; Activity (Mus musculus [26]): Toxic
C[C@@H]1C(=O)NN=C2COc3cc(C(F)(F)F)c(NC4CNC4)cc3N21 | 0.44 | 80 | < 78.3 | < 138 | 35 | 5.5 | 80 | 409 | 28 | 96.7 | 2.7 | 342 | 1730 | 85 | > 30000 | 4600 | 220 | IC50 [28]: 1500 nM; IC50 [29]: 470 nM; IC50 [30]: 140 nM; IC50 [31]: 7800 nM; IC50 [32]: 3900 nM; IC50 [33]: 33000 nM; Activity (Canis familiaris [34]): -4%; Activity (Canis familiaris [35]): -12 mmHg; Activity (Canis familiaris [36]): -7%; Activity (Canis familiaris [37]): 1 mmHg; Activity (Canis familiaris [38]): 3%; Activity (Canis familiaris [39]): 3 mmHg; Activity (Canis familiaris [40]): 34%; Activity (Rattus norvegicus [41]): Toxic; Activity (Canis familiaris [42]): -3 mmHg; Activity (Rattus norvegicus [43]): Non-toxic; Activity (Rattus norvegicus [44]): Toxic
CN1CCN(c2nc(C3=C(c4c[nH]c5ccccc45)C(=O)NC3=O)c3ccccc3n2)CC1 [SOTRASTAURIN] |  |  |  |  |  |  |  |  |  |  |  |  |  |  |  |  |  | Activity (Rattus norvegicus [45]): 14%; Activity (Rattus norvegicus [46]): 35%; Activity (Rattus norvegicus [47]): 76%
